Results taken from patent publication US5830912A, “Derivatives of 6,8-difluoro-7-hydroxycoumarin” (Molecular Probes, Inc., priority 1996, dated 1998).
Like-named read-outs stand apart in the source and are kept apart here.

Assays:
[1] = Quantum yield of selected dyes (Table 3); assay type: physicochemical
[2] = pH titration of fluorophores (pKa determination); assay type: physicochemical
Method: The dye of interest is first dissolved in a series of buffers that have each been calibrated using a pH meter. Acetate buffers are typically used in the range of pH 4-6, and phosphate buffers in the pH range 6-8. Absorption measurements are made using solutions that are approximately 10 μM in concentration, and fluorescence measurements are made using solutions that are approximately 1 μM in concentration. The absorption or emission data is then plotted versus pH to determine pKa values.

[3] = Photobleaching during illumination in a fluorometer; assay type: physicochemical; conditions: after 33 minutes of illumination in a fluorometer at the wavelength of maximum excitation
Method: | *Percent decrease in fluorescence intensity after 33 minutes of | illumination in a fluorometer at the wavelength of maximum excitation.

[4] = system: acid phosphatase; assay: Fluorogenic substrate assay for acid phosphatase activity; assay type: biochemical
Method: (§1) The utility of Compound 6 as a substrate for both alkaline and acid phosphatase is compared with the utility of the non-fluorinated analog, 4-methylumbelliferyl phosphate (MUP).
(§2) 1) Fluorescence yield: For an accurate comparison, the concentrations of the two substrates (initially approximately 10 mM) are matched by normalizing the absorbance of each substrate solution at 319 nm (pH 10) to a value of 0.52 (assuming the extinction coefficient of each substrate is approximately equivalent). The matched samples are then diluted 1:10 into excess enzyme buffer (10 units/mL), and the resulting fluorescence signal is recorded as a function of time (excitation 360 nm, emission 450 nm). The fluorescence yield obtained with acid phosphatase (pH 4.8, citrate buffer) is about 10 times greater when using Compound 6 than that obtained using MUP after one hour (FIG. 4). […] Using alkaline phosphatase (pH 10.4, glycine buffer with 1 mM MgCl2) the fluorescence yield obtained using Compound 6 is approximately 25% greater than that obtained using MUP (FIG. 4);
As above, the substrate samples are matched in concentration by normalizing absorbance values at 316 nm to a value of 0.525, then diluting 1:10.
3) Enzyme sensitivity: Serial dilutions of acid phosphatase are incubated with 50 μM of each substrate for 1 hour at pH 5, then fluorescence intensity at 460 nm is collected following 360 nm excitation.

[5] = system: alkaline phosphatase; assay: Fluorogenic substrate assay with alkaline phosphatase; assay type: biochemical; conditions: pH 10.4 glycine buffer with 1 mM MgCl2, FIG. 4
Method: as §1, §2

[6] = molecular target: β-galactosidase (Escherichia coli, UniProt P00722); assay: Fluorogenic substrate assay for β-galactosidase activity; assay type: biochemical; conditions: for Km: read-out: Km (Michaelis-Menton constant), 0.01 units β-galactosidase, FIG. 9
Method: The utility of Compound 9 as a substrate for β-galactosidase is compared with the utility of the non-fluorinated analog, 4-methylumbelliferyl β-D-galactoside (MUG).
1) Fluorescence yield: For an accurate comparison, the concentrations of the two substrates (initially approximately 10 mM) are matched by normalizing the absorbance of each substrate solution at 316 nm (pH 8.3; 20 mM sodium bicarbonate) to a value of 0.5 (assuming the extinction coefficient of each substrate is approximately equivalent). The matched samples are then diluted 1:10 into β-galactosidase buffer pH 7.0, and 2 units enzyme/mL are added. The use of Compound 9 as an enzyme substrate produces an approximately 8-fold signal enhancement over the use of MUG, when the fluorescence is measured at the reaction pH. […] However, even after optimization, the signal derived using Compound 9 (at pH 7.0) is still approximately 4-fold greater than that obtained using MUG (at pH 10).
2) Km determination: In a series of experiments, increasing amounts of each substrate are incubated with 0.01 units of β-galactosidase for 1 hour. The resulting fluorescence is measured by exciting at 360 nm, and the emission is collected at 460 nm.
3) Reaction rate: The fluorescence yield is measured at high substrate concentrations (50 μM) (relative to low enzyme concentration (0.01 units/mL)) over the course of 1 hour to compare reaction rates.
4) Enzyme sensitivity: Serial dilutions of […] are incubated with 50 μM of each substrate for 1 hour at pH 7, then fluorescence intensity at 460 nm is collected (following 360 nm excitation).

[7] = 1 hour, excitation 360 nm, emission 460 nm

Chain of β-galactosidase (P00722 2-1024): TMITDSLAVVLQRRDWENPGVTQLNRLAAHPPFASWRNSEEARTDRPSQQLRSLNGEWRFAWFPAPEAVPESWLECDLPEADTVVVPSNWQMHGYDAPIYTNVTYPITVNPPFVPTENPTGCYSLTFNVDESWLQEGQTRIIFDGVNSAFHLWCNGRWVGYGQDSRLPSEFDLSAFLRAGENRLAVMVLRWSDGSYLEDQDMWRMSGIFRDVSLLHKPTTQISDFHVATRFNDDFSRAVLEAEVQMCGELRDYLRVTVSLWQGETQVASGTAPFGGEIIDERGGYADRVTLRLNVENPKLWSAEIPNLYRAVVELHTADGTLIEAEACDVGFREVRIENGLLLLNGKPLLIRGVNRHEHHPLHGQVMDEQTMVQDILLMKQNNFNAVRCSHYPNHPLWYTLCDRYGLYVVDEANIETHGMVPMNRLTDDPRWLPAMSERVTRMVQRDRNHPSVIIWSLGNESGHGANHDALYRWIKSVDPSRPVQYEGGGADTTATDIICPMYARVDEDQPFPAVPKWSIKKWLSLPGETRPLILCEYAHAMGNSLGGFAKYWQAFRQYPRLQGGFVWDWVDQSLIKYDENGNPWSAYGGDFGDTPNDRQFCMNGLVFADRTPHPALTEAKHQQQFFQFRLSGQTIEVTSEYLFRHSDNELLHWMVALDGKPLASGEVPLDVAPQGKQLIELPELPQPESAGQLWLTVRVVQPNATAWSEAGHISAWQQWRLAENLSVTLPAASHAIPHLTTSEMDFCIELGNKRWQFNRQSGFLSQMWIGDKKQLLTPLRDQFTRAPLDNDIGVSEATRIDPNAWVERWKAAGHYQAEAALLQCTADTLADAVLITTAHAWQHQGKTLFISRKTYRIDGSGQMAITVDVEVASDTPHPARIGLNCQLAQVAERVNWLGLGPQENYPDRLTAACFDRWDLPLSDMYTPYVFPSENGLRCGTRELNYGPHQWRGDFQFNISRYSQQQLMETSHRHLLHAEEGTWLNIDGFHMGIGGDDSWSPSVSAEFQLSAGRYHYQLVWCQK

SMILES	Quantum Yield (pH 9) [1]	pKa [2]	Photobleaching: percent decrease in fluorescence intensity [3] [%]	further results
Cc1cc(=O)oc2cc(O)c(F)cc12	0.64	6.4	20	–
Cc1c(CC(=O)O)c(=O)oc2cc(O)ccc12 [7-hydroxy-4-methylcoumarin-3-acetic acid]	–	~ 7.4	–	–
O=c1cc(C(F)(F)F)c2cc(F)c(O)cc2o1	0.44	5.7	18	–
Cc1cc(=O)oc2c(F)c(O)c(F)c(F)c12	0.54	4.2	–	–
Cc1cc(=O)oc2cc(O)ccc12 [7-hydroxy-4-methylcoumarin]	0.63	7.9	22	pKa ([2]; stated in Example 47 for the product of MUG deglycosylation): 7.8
Cc1cc(=O)oc2c(F)c(OP(=O)(O)O)c(F)cc12 [Compound 6, 6,8-difluoro-7-hydroxy-4-methylcoumarin phosphate, free acid]	–	–	–	Enzyme concentration detection threshold, fold lower than with MUP ([4]; acid phosphatase 0.00001 to 10 units/mL, 50 μM substrate, 1 hour, pH 5, FIGS. 6 and 7): approximately 10 fold; Initial reaction rate of hydrolysis compared with MUP ([4]; acid phosphatase 0.01 units/mL, large excess of substrate, pH 4.8 citrate buffer, FIG. 5): significantly higher; Fluorescence signal relative to MUP after raising both reaction solutions to pH 10 ([4]; acid phosphatase reaction at pH 4.8, then raised to pH 10): twice as large; Sensitivity to enzyme concentration compared with MUP after raising the pH to 10 ([4]; acid phosphatase, 50 μM substrate, 1 hour at pH 5, then pH 10): approximately twice as sensitive; Fluorescence yield relative to MUP ([4]; acid phosphatase, pH 4.8 citrate buffer, after one hour, excitation 360 nm, emission 450 nm, FIG. 4): approximately 10 times; Fluorescence yield, increase over MUP [5]: approximately 25%
O=c1oc2c(F)c(O)c(F)cc2cc1-c1nc2ccccc2s1 [Compound 17, 3-benzothiazolyl-6,8-difluoro-7-hydroxycoumarin]	–	5.0	–	–
O=c1cc(C(F)(F)F)c2ccc(O)cc2o1	0.34	7.3	31	–
O=c1cc(C(F)(F)F)c2cc(F)c(O)c(F)c2o1 [Compound 20, 6,8-difluoro-7-hydroxy-4-trifluoromethylcoumarin]	0.23	4.0	7	–
Cc1cc(=O)oc2cc(O)cc(F)c12	0.78	5.9	12	–
Cc1c(CC(=O)O)c(=O)oc2c(F)c(O)c(F)cc12 [Compound 11, 6,8-difluoro-7-hydroxy-4-methylcoumarin-3-acetic acid]	–	~ 6.2	–	–
Cc1cc(=O)oc2c(F)c(O)c(F)cc12 [Compound 4, 6,8-difluoro-7-hydroxy-4-methylcoumarin]	0.89	–	5	pKa ([2]; Table 3): 4.7
Cc1cc(=O)oc2c(F)c(O[C@@H]3O[C@H](CO)[C@H](O)[C@H](O)[C@H]3O)c(F)cc12 [Compound 9, 6,8-difluoro-7-hydroxy-4-methylcoumarin, β-D-galactopyranoside]	–	–	–	Reaction rate with β-galactosidase compared with MUG ([6]; 50 μM substrate, 0.01 units/mL enzyme, 1 hour, FIG. 10): react more rapidly; Enzyme concentration detection threshold, fold lower than with MUG ([6]; 50 μM substrate, 1 hour, pH 7, FIG. 11): approximately 10 fold; Km [6, 7]: ~25 µM; Fluorescence signal enhancement over MUG at the reaction pH ([6]; β-galactosidase 2 units/mL, pH 7.0, emission 460 nm, excitation 360 nm, FIG. 8): approximately 8 fold; Fluorescence signal (at pH 7.0) relative to MUG optimized at pH 10 ([6]; β-galactosidase 2 units/mL, MUG reaction raised to pH 10 with NaOH): approximately 4 fold
Cc1cc(=O)oc2cc(O[C@@H]3O[C@H](CO)[C@H](O)[C@H](O)[C@H]3O)ccc12 [MUG, 4-methylumbelliferyl β-D-galactoside]	–	–	–	Km [6, 7]: ~60 µM
